From PubChem BioAssay AID330 (DTP/NCI, 2004)
Where “and” joins values, the source holds several entries; their conditions need not be identical. Identical values can stand only once. Toxic doses and inconclusive results are not listed. Rule for the calls: active = survival T/C of 150% or more; inactive = T/C below 125% in these data.

Tested on: P388 leukemia ip, CD2F1 mice, survival T/C
Test: NCI In Vivo Anticancer Drug Screen. Data for tumor model P388 Leukemia (intraperitoneal) in CD2F1 (CDF1) mice
Settings: endpoint: median survival time, higher = longer survival
Method in brief: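 Mice carrying the transplanted tumor received test compound or vehicle. Survival was recorded in each group, and the value is the treated-group measurement divided by that of the vehicle-treated control group.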

[1] = dose: 50.0 mg/kg/injection, schedule: Q01DX009 (ip), vehicle: saline with Tween-80
[2] = dose: 100.0 mg/kg/injection, schedule: Q01DX009 (ip), vehicle: saline with Tween-80
[3] = dose: 200.0 mg/kg/injection, schedule: Q01DX009 (ip), vehicle: saline with Tween-80
[4] = dose: 100.0 mg/kg/injection, schedule: Q04DX003 (ip), vehicle: saline with Tween-80
[5] = dose: 200.0 mg/kg/injection, schedule: Q04DX003 (ip), vehicle: saline with Tween-80
[6] = dose: 400.0 mg/kg/injection, schedule: Q04DX003 (ip), vehicle: saline with Tween-80
[7] = dose: 50.0 mg/kg/injection, schedule: Q01DX005 (ip), vehicle: saline with Tween-80
[8] = dose: 100.0 mg/kg/injection, schedule: Q01DX005 (ip), vehicle: saline with Tween-80
[9] = dose: 200.0 mg/kg/injection, schedule: Q01DX005 (ip), vehicle: saline with Tween-80
[10] = dose: 25.0 mg/kg/injection, schedule: Q01DX005 (ip), vehicle: Klucel (hydroxypropylcellulose) (HPC)
[11] = dose: 50.0 mg/kg/injection, schedule: Q01DX005 (ip), vehicle: Klucel (hydroxypropylcellulose) (HPC)
[12] = dose: 100.0 mg/kg/injection, schedule: Q01DX005 (ip), vehicle: Klucel (hydroxypropylcellulose) (HPC)
[13] = dose: 200.0 mg/kg/injection, schedule: Q01DX005 (ip), vehicle: Klucel (hydroxypropylcellulose) (HPC)
[14] = dose: 50.0 mg/kg/injection, schedule: Q01DX009 (ip), vehicle: Klucel (hydroxypropylcellulose) (HPC)
[15] = dose: 100.0 mg/kg/injection, schedule: Q01DX009 (ip), vehicle: Klucel (hydroxypropylcellulose) (HPC)
[16] = dose: 25.0 mg/kg/injection, schedule: Q01DX009 (ip), vehicle: Klucel (hydroxypropylcellulose) (HPC)

Measured: T/C

O=C(NC1CCCCC1)O/N=C/c1ccc2c(c1)OCO2
inactive: [1] 93 % of control | [2] 86 % of control | [3] 86 % of control

NC(N)=Nc1ccc(C(=O)Oc2ccc([N+](=O)[O-])cc2)cc1
inactive: [4] 104 % of control | [5] 100 % of control | [6] 95 % of control

Cc1cnc(NCCCCCCCCNc2ncc(C)c(-c3ccccc3O)n2)nc1-c1ccccc1O
inactive: dose: 100.0 mg/kg/injection, schedule: Q04DX003 (ip), vehicle: saline 95 % of control | dose: 200.0 mg/kg/injection, schedule: Q04DX003 (ip), vehicle: saline 93 % of control | dose: 400.0 mg/kg/injection, schedule: Q04DX003 (ip), vehicle: saline 89 % of control

O=C(CCN1CCCC1)Nc1nc(-c2ccc(Cl)cc2)cs1
inactive: [7] 102 % of control | [8] 93 % of control | [9] 94 % of control

CC(=O)NNC1=NC(C)(C)CC1
inactive: dose: 100.0 mg/kg/injection, schedule: Q01DX001 (ip), vehicle: saline 97 % of control | dose: 200.0 mg/kg/injection, schedule: Q01DX001 (ip), vehicle: saline 102 % of control | dose: 400.0 mg/kg/injection, schedule: Q01DX001 (ip), vehicle: saline 102 % of control

NC(C(=O)O)/C1=C/CCCCCC1 (stereo not drawn)
inactive: [10] 106 % of control | [11] 101 % of control | [12] 98 % of control | [13] 101 % of control

O=C(O)C1CCC(=O)N1C(=O)OCc1ccccc1 (stereo not drawn)
inactive: [4] 95 % of control | [5] 90 % of control | [6] 90 % of control

CS(=O)(=O)/C=C/COC(=O)/C=C/c1ccccc1
inactive: [10] 102 % of control | [11] 102 % of control | [12] 100 % of control | [13] 102 % of control

CC1(C)OC(=O)C(=Cc2ccc([N+](=O)[O-])s2)C(=O)O1
inactive: [1] 103 % of control and 110 % of control | [2] 109 % of control and 122 % of control | [3] 111 % of control and 124 % of control

O=C1CC2(CCCC2)CC(=O)N1c1ccc(-c2ccc(N3C(=O)CC4(CCCC4)CC3=O)cc2)cc1
inactive: [14] 100 % of control | [15] 94 % of control

Oc1cncc2ncccc12
inactive: dose: 50.0 mg/kg/injection, schedule: Q01DX009 (ip), vehicle: saline 106 % of control | dose: 100.0 mg/kg/injection, schedule: Q01DX009 (ip), vehicle: saline 100 % of control | dose: 200.0 mg/kg/injection, schedule: Q01DX009 (ip), vehicle: saline 100 % of control

O=C(O)CCS(=O)(=O)CCC(=O)O
inactive: [4] 100 % of control | [5] 104 % of control

CC[C@@]1(O)C[C@H](OC2CC(N(C)C)C(OC3CC(O)C(OC4CCC(=O)C(C)O4)C(C)O3)C(C)O2)c2c(cc3c(c2O)C(=O)c2c(O)ccc(O)c2C3=O)[C@H]1C(=O)OC (stereo partly drawn)
active: dose: 2.0 mg/kg/injection, schedule: Q04DX003 (ip), vehicle: saline with Tween-80 154 % of control and 161 % of control | dose: 2.59 mg/kg/injection, schedule: Q04DX003 (ip), vehicle: water 160 % of control | dose: 4.32 mg/kg/injection, schedule: Q04DX003 (ip), vehicle: saline 152 % of control and 153 % of control and 160 % of control | dose: 4.32 mg/kg/injection, schedule: Q04DX003 (ip), vehicle: water 151 % of control and 169 % of control | dose: 7.2 mg/kg/injection, schedule: Q04DX003 (ip), vehicle: saline 164 % of control and 180 % of control
inactive: dose: 1.56 mg/kg/injection, schedule: Q04DX003 (ip), vehicle: saline 116 % of control | dose: 8.0 mg/kg/injection, schedule: Q04DX003 (ip), vehicle: saline with Tween-80 94 % of control and 98 % of control | dose: 12.0 mg/kg/injection, schedule: Q04DX003 (ip), vehicle: saline 103 % of control | dose: 12.0 mg/kg/injection, schedule: Q04DX003 (ip), vehicle: water 92 % of control

O=[N+]([O-])C(Br)(CO)CO
inactive: dose: 3.12 mg/kg/injection, schedule: Q01DX009 (ip), vehicle: saline 100 % of control | dose: 6.25 mg/kg/injection, schedule: Q01DX009 (ip), vehicle: saline 103 % of control | dose: 12.5 mg/kg/injection, schedule: Q01DX009 (ip), vehicle: saline 114 % of control and 118 % of control

CN(C)c1ccc(C=C2C(=O)CC(C)(C)CC2=O)cc1
inactive: [16] 106 % of control | [14] 97 % of control | [15] 92 % of control | dose: 200.0 mg/kg/injection, schedule: Q01DX009 (ip), vehicle: Klucel (hydroxypropylcellulose) (HPC) 93 % of control

C/C(=C/OS(=O)(=O)C(F)(F)F)c1ccccc1
inactive: dose: 50.0 mg/kg/injection, schedule: Q01DX009 (ip), vehicle: olive oil, sesame oil, peanut oil 105 % of control | dose: 100.0 mg/kg/injection, schedule: Q01DX009 (ip), vehicle: olive oil, sesame oil, peanut oil 116 % of control | dose: 200.0 mg/kg/injection, schedule: Q01DX009 (ip), vehicle: olive oil, sesame oil, peanut oil 87 % of control

O=C(NN(C(=O)c1ccccc1)c1ccccc1)c1ccccc1
inactive: [7] 95 % of control | [8] 92 % of control

Cc1ccc2ccccc2c1N(CC(=O)O)S(=O)(=O)c1ccccc1
inactive: [2] 100 % of control | [4] 100 % of control | [3] 110 % of control | [5] 100 % of control | dose: 400.0 mg/kg/injection, schedule: Q01DX009 (ip), vehicle: saline with Tween-80 120 % of control | [6] 109 % of control

Cc1ccc(NC(=O)Nc2cc(S(=O)(=O)O)ccc2Oc2ccccc2Cl)cc1
inactive: dose: 100.0 mg/kg/injection, schedule: Q04DX003 (ip), vehicle: saline sonified 100 % of control | dose: 200.0 mg/kg/injection, schedule: Q04DX003 (ip), vehicle: saline sonified 90 % of control | dose: 400.0 mg/kg/injection, schedule: Q04DX003 (ip), vehicle: saline sonified 100 % of control

O=c1[nH]c(=S)nc2nc[nH]n12
inactive: dose: 25.0 mg/kg/injection, schedule: Q01DX009 (ip), vehicle: saline with Tween-80 100 % of control | [7] 98 % of control | [1] 97 % of control | [8] 100 % of control | [2] 100 % of control | [9] 103 % of control | [3] 106 % of control

CC1(C)CCCC2=C1C(=O)N(SC(Cl)(Cl)Cl)C2=O
inactive: dose: 12.5 mg/kg/injection, schedule: Q01DX005 (ip), vehicle: Klucel (hydroxypropylcellulose) (HPC) 102 % of control | [10] 121 % of control | [11] 121 % of control and 123 % of control | [12] 122 % of control

CCN(CC)c1cc2oc3cc(N)cc(=N)c-3nc2cc1C
inactive: dose: 12.5 mg/kg/injection, schedule: Q01DX005 (ip), vehicle: saline 102 % of control | dose: 25.0 mg/kg/injection, schedule: Q01DX005 (ip), vehicle: saline 98 % of control | [7] 112 % of control | dose: 50.0 mg/kg/injection, schedule: Q01DX005 (ip), vehicle: saline 96 % of control | [8] 107 % of control | [9] 102 % of control

CC(C)(C)c1ccc(S(=O)[O][Sn]([CH3])([CH3])[O]S(=O)c2ccc(C(C)(C)C)cc2)cc1 (stereo not drawn)
inactive: dose: 50.0 mg/kg/injection, schedule: Q01DX001 (ip), vehicle: Klucel (hydroxypropylcellulose) (HPC) 110 % of control | dose: 200.0 mg/kg/injection, schedule: Q01DX001 (ip), vehicle: Klucel (hydroxypropylcellulose) (HPC) 114 % of control

Cc1cc(NC(=O)C(=O)O)cc2c(=O)cc(C(=O)O)[nH]c12
inactive: [16] 102 % of control | [14] 117 % of control and 124 % of control

Cc1cc(C)c(F)[c]([Hg][Br])c1N
inactive: dose: 0.78 mg/kg/injection, schedule: Q01DX005 (ip), vehicle: Klucel (hydroxypropylcellulose) (HPC) 89 % of control | dose: 1.56 mg/kg/injection, schedule: Q01DX005 (ip), vehicle: Klucel (hydroxypropylcellulose) (HPC) 92 % of control | dose: 6.25 mg/kg/injection, schedule: Q01DX005 (ip), vehicle: Klucel (hydroxypropylcellulose) (HPC) 90 % of control and 92 % of control

O=[N+]([O-])/C=C/c1cc2c(cc1O)OCO2
inactive: dose: 75.0 mg/kg/injection, schedule: Q01DX009 (ip), vehicle: Klucel (hydroxypropylcellulose) (HPC) 115 % of control | dose: 150.0 mg/kg/injection, schedule: Q01DX009 (ip), vehicle: Klucel (hydroxypropylcellulose) (HPC) 101 % of control | dose: 300.0 mg/kg/injection, schedule: Q01DX009 (ip), vehicle: Klucel (hydroxypropylcellulose) (HPC) 115 % of control
